Measured values taken from ChEMBL document CHEMBL4190237, “Recent developments in biological activities of indanones” (Eur J Med Chem, 2017).
pEC50, pIC50: −log10 of the molar value.

Assays:
Acetylcholinesterase = Acetylcholinesterase (Electrophorus electricus, UniProt O42275); assay: Inhibition of electric eel AChE using acetylthiocholine iodide as substrate after 1 min by Ellman's method
Klebsiella pneumoniae = assay: Antibacterial activity against Klebsiella pneumoniae assessed as growth inhibition; assay type: functional
Jurkat = assay: Cytotoxicity against human Jurkat cells assessed as cell growth inhibition by MTT assay; assay type: functional, cell-based
Candida albicans = assay: Antifungal activity against Candida albicans MTCC 227 assessed as zone of inhibition at 50 mg/ml after 24 hrs by agar disc-diffusion method; assay type: functional; settings: MTCC 227, 24 h, read-out: IZ
HeLa = assay: Cytotoxicity against human HeLa cells; assay type: functional, cell-based
K562 = assay: Cytotoxicity against human K562 cells; assay type: functional, cell-based
[1] = system: Bovine viral diarrhea virus 1; assay: Antiviral activity against BVDV infected in MDBK cells assessed as protection against virus-induced cytopathic effect after 3 days by MTS/PMS assay; assay type: functional, organism-based; settings: Bovine viral diarrhea virus isolates and strains, 72 h

Chain of Acetylcholinesterase (O42275 whole entry): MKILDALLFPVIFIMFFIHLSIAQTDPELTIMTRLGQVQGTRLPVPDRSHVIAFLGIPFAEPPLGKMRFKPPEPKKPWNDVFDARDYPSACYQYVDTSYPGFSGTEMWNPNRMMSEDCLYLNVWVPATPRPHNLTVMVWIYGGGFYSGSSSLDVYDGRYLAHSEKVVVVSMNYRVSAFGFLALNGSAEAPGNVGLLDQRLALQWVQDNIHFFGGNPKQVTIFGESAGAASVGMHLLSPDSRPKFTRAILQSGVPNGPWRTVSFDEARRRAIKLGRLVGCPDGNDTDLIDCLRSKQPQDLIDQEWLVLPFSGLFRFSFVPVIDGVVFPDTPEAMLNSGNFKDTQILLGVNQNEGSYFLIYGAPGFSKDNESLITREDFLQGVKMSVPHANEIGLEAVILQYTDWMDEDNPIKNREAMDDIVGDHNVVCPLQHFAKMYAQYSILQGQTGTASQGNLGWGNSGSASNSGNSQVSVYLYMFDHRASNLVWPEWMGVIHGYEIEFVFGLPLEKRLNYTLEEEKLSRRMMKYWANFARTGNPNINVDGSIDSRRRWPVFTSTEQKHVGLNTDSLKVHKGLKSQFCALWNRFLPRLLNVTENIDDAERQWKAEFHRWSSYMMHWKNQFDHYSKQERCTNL

NNc1ccc(C(=O)NCCCCCOc2ccc3c(c2)CC(CN2CCC(Cc4ccccc4)CC2)C3=O)cn1 (configuration not stated)
pIC50 (Acetylcholinesterase): 5.96

COc1cc2c(cc1OC)C(=O)/C(=C/c1cccc(/C=C/c3ccc4ccc(Cl)cc4n3)c1)C2
growth inhibition (GI) (Klebsiella pneumoniae): 11.23%

COc1cc2c(c(N)c1OC)C/C(=C\c1cc(C)c(O)c(C)c1)C2=O
pIC50 (Jurkat): 9.00

COc1cccc(-c2c(C#N)c(N)n(/N=C3\CCc4cc(OC)c(OC)cc43)c(=O)c2C#N)c1
zone of inhibition at 50000 µg/mL (Candida albicans): 23 mm

COc1cc(OC)c2c(c1)C(=O)CC2c1ccc(Br)cc1 (configuration not stated)
pIC50 (HeLa): 4.22 | pIC50 (K562): 5.00

COc1cc2c(cc1OC)/C(=N/NC(N)=S)CC2
pEC50 [1]: 5.27
